{"source": "patent US20120225849A1", "about": "“2-Methoxyestradiol (2-ME2) Prodrug with Enhanced Bioavailability for Prophylaxis or Treatment of Cancerous or Non-Cancerous Condition” (The University of Kansas, priority 2011, published 2012)", "key": {"[1]": {"assay": "Rat plasma pharmacokinetics of 2-ME2 after intravenous and oral dosing (cannulated rat model)", "assay_type": "in vivo, Sprague Dawley rats", "details": "for Bioavailability: AUC through 480 minutes", "protocol": "The main compound of the present invention (2ME2-PD) and the native compound (8R,9S,13S,14S,17S)-2-methoxy-13-methyl-7,8,9,11,12,13,14,15,16,17-decahydro-6H-cyclopenta[a]phenanthren-17-ol (2-ME2) were dissolved independently in 0.1 M Captisol® at concentrations between 10 mg/mL and 21 mg/mL. The solutions were sterile filtered through 0.2 micron filters prior to use.\nAnimal studies were approved and conducted in accordance with the guidelines of the Institutional Animal Care and Use Committee. A cannulated rat model was used to study the intravenous (iv) and oral absorption 2-ME2 and 2-ME2-PD.\nSprague Dawley rats (male, 250-300 gram, Charles River Laboratories) were implanted with carotid artery, and jugular and/or femoral vein catheters. These studies were automated with the animals connected to the Culex Automated Pharmacology System allowing for direct comparison of pharmacokinetic behavior between the orally and iv administered compounds in the same animal. Following surgery, the animals were connected to the Culex and allowed to recover and acclimate. Fasted animals were dosed intravenously and orally with solutions of 2-ME2-PD in 0.1 M Captisol® (CyDex Pharmaceuticals, Inc) and 2-ME2 parent in 0.2 M HP-13-CD (Sigma-Aldrich).\nOral doses were given via gavage to the animal under light anesthesia. Blood was sampled at times ranging from five to 1440 minutes into heparinized vials stored on the chilled fraction collector, and remained there until sampling was complete. Blood samples were processed to plasma via centrifugation and stored at −80° C. until analysis for 2-ME2-PD, 2-ME2 and associated metabolite concentration by liquid chromatography-mass spectrometry (LC-MS/MS). Bioanalytical methods for the 2-ME2-PD and 2-ME2 analysis were modified from those of Lakhani et. al. Quantitation was made relative to deuterated internal standards.\nPharmacokinetic analysis of the resulting plasma concentration time data was performed using PK Solution software (Summit PK). Results for the studies conducted are illustrated in FIG. 1 and Table II (below). For oral doses of 2-ME2, no compound was found in plasma at all time points studied (<2 ng/mL LOQ). All samples from times greater than 480 minutes had 2-ME2 levels that were below the limit of quantitation."}, "OE33 xenografts": {"tested_on": "OE33 xenografts", "assay": "Growth of Barrett's esophageal adenocarcinoma (BEAC) OE33 xenografts in nude mice", "assay_type": "in vivo", "details": "75 mg/kg/day orogastric feeding, 8 days, versus vehicle control, listed as pro-2-ME2", "protocol": "We injected ˜2.0×10^6 OE33 cells subcutaneously into the left hind leg flank of each nude mice […] for the development of tumor. The mice were divided into two groups (two mice per group) with a control group and Pro-2-ME2 treatment group. After forming palpable tumors, the nude mice bearing xenografts of OE33 cells were given daily pro-2-ME2 doses (75 mg/kg/day) by orogastric feeding or vehicle (control). Pro-2-ME2 was dissolved in 500 μl of saline water. We used 500 μl of saline water as a vehicle control. Tumor growth was monitored for 8 days by measuring two perpendicular diameters twice weekly. Tumor volume was calculated according to the formula V=a×b^2/2, where a and b are the largest and smallest diameters, respectively."}, "[2]": {"details": "Reference 13, cited from earlier work"}, "[3]": {"details": "oxidation of 2-ME2 at the 17 position; References 3, 13 and 19; cited from earlier work"}, "[4]": {"details": "plasma 2-ME2, 2-ME2-PD intravenous 10 mg/kg"}, "[5]": {"details": "plasma 2-ME2, 2-ME2-PD oral 20 mg/kg, average of two animals"}, "[6]": {"details": "plasma 2-ME2, 2-ME2-PD oral 31.5 mg/kg"}, "[7]": {"details": "plasma 2-ME2, 2-ME2 intravenous 5.21 mg/kg"}}}
{"smiles": "COc1cc2c(cc1OCOP(=O)([O-])[O-])CC[C@@H]1[C@@H]2CC[C@]2(C)[C@@H](OC(C)=O)CC[C@@H]12.[Na+].[Na+]", "note": "[2-ME2-PD, disodium(((8R,9S,13S,14S,17S)-17-acetoxy-2-methoxy-13-methyl-7,8,9,11,12,13,14,15,16,17-decahydro-6H-cyclopenta[a]phenanthren-3-yl)oxy)methyl phosphate]", "values": [{"measurement": "Bioavailability", "setting": "[1]; 2-ME2-PD intravenous 10 mg/kg, relative to 2ME2 iv and corrected for dose", "value": 21.8, "unit": "%"}, {"measurement": "Bioavailability", "setting": "[1]; 2-ME2-PD oral 20 mg/kg, relative to 2ME2 iv and corrected for dose, average of two animals", "value": 4.4, "unit": "%"}, {"measurement": "Bioavailability", "setting": "[1]; 2-ME2-PD oral 31.5 mg/kg, relative to 2ME2 iv and corrected for dose", "value": 4.9, "unit": "%"}, {"measurement": "absolute bioavailabilities from oral administration", "setting": "[1]; oral 2-ME2 prodrug, 0-480 minutes", "value": "4-5%"}, {"measurement": "Cmax", "setting": "[1]; [4]", "value": 121, "unit": "ng/mL"}, {"measurement": "T1/2", "setting": "[1]; [4]", "value": 4.37, "unit": "h"}, {"measurement": "AUCt-480", "setting": "[1]; plasma 2-ME2, 2-ME2-PD intravenous 10 mg/kg (corrected dose 6.06 mg/kg)", "value": 4967, "unit": "ng·min/mL"}, {"measurement": "AUCt-480", "setting": "[1]; plasma 2-ME2, 2-ME2-PD oral 20 mg/kg (corrected dose 12.13 mg/kg), average of two animals", "value": 2006, "unit": "ng·min/mL"}, {"measurement": "Cmax", "setting": "[1]; [5]", "value": 8.4, "unit": "ng/mL"}, {"measurement": "T1/2", "setting": "[1]; [5]", "value": 13.4, "unit": "h"}, {"measurement": "Cmax", "setting": "[1]; [6]", "value": 9.9, "unit": "ng/mL"}, {"measurement": "T1/2", "setting": "[1]; [6]", "value": 6.85, "unit": "h"}, {"measurement": "AUCt-480", "setting": "[1]; plasma 2-ME2, 2-ME2-PD oral 31.5 mg/kg (corrected dose 19.11 mg/kg)", "value": 3516, "unit": "ng·min/mL"}, {"measurement": "growth of OE33 tumor implants (tumor volume)", "setting": "OE33 xenografts", "value": "significantly inhibited"}]}
{"smiles": "COc1cc2c(cc1O)CC[C@@H]1[C@@H]2CC[C@]2(C)[C@@H](O)CC[C@@H]12", "note": "[2-ME2]", "values": [{"measurement": "Bioavailability", "setting": "[1]; 2-ME2 intravenous 5.21 mg/kg (reference)", "value": 100, "unit": "%"}, {"measurement": "2-ME2 in plasma at all time points (LOQ)", "setting": "[1]; oral doses of 2-ME2 (5.21 mg/kg), no compound found", "value": "< 2", "unit": "ng/mL"}, {"measurement": "AUCt-480", "setting": "[1]; [7]", "value": 19253, "unit": "ng·min/mL"}, {"measurement": "Cmax", "setting": "[1]; [7]", "value": 1221, "unit": "ng/mL"}, {"measurement": "T1/2", "setting": "[1]; [7]", "value": 0.983, "unit": "h"}, {"measurement": "orally administered dose of 2-ME2 recovered in the urine", "setting": "[2]", "value": "~1", "unit": "%"}, {"measurement": "fraction of orally administered 2-ME2 dose recovered in the urine as metabolites", "setting": "[2]; metabolites, animal and human studies", "value": "less than 1%"}, {"measurement": "fraction of orally administered 2-ME2 dose recovered in the urine", "setting": "[2]; unchanged 2-ME2, animal and human studies", "value": "less than 0.1%"}]}
{"smiles": "COc1cc2c(cc1O)CC[C@@H]1[C@@H]2CC[C@]2(C)C(=O)CC[C@@H]12", "note": "[2-methoxyestrone]", "values": [{"measurement": "loss in activity in vitro versus 2-ME2", "setting": "[3]", "value": "10-to 100 fold"}]}
